Consider one molecule from ChEMBL document CHEMBL5223170, “Potent and Selective Biaryl Amide Inhibitors of Hematopoietic Progenitor Kinase 1 (HPK1)” (ACS Med Chem Lett, 2023).

Converted amounts (≈) assume the structure as drawn.

A short description of data set [1]: physchem. Conditions: SGF buffer.
Data set [2] is described as follows: in vitro. The note with it: human, liver microsomes.

What is called solubility is how much of the substance goes into solution per volume. Lower therefore signals a poorly soluble substance. For orientation: CLint scaled means a measure of how fast metabolising enzymes remove a compound, apart from limits set by blood flow. The molecule `COc1cccc(F)c1-c1nccc(C(=O)Nc2cc(F)c3c(cnn3C)c2N2C[C@@H](N)C[C@H]2CO)n1` had a solubility in data set [1] of 350 µg/mL (≈ 687 µM). In addition, the CLint scaled at 0.5 h in data set [2] is above 18.3 mL/min/kg.
